The record followed here is article PMC5653858, “A single extracellular amino acid in Free Fatty Acid Receptor 2 defines antagonist species selectivity and G protein selection bias” (Scientific Reports, 2017).

Assay [1] has as its target T1, Lys^65Arg hFFA2 (Homo sapiens, UniProt O15552, K65R).
T1 construct: NanoLuc Luciferase (N); eYFP; expressed in transfected cells; host or cells: Flp-In T-REx HEK293, doxycycline-induced
T1 sequence (O15552 1-330 K65R): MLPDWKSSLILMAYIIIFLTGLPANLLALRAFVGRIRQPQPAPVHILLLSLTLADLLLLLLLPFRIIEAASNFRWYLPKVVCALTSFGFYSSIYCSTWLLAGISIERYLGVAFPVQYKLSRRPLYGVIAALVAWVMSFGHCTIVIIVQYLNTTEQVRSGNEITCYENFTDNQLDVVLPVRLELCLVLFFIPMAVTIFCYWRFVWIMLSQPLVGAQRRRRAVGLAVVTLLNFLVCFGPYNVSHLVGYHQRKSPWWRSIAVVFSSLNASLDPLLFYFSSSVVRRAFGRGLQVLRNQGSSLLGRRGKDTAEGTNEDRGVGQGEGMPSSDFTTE
Nature of the assay: inositol monophosphate accumulation assay, Lys65Arg hFFA2. It is filed as cell-based. As for the experimental part:
(§1) All cAMP and inositol monophosphate experiments were performed using Flp-In T-REx HEK293 cells induced to express the receptor of interest. Experiments were carried out using respective homogenous time-resolved FRET-based detection kits (CisBio Bioassays; CisBio, Codolet, France) according to the manufacturer’s protocol. For the cAMP inhibition assay cells were plated at 2000 cells/well in low-volume 384-well plates. The ability of agonists to inhibit 1 μM forskolin-induced cAMP production was assessed following a co-incubation for 30 min with agonist compounds. For the inositol monophosphate accumulation assay cells were plated at 7500 cells/well in low-volume 384-well plates and incubated for 2 h at 37 °C with test compounds. To assess ability of antagonists to inhibit agonist responses, cells were pre-incubated with antagonist compounds for 30 min at 37 °C prior to addition of an EC80 concentration of agonist. Respective reactions were stopped according to the manufacturer’s instructions and the output was measured by with a PHERAstar FS plate reader (BMGLabtech, Aylesbury, UK).

The target of assay [2] is T2, Lys^65Glu hFFA2 (Homo sapiens, UniProt O15552, K65E).
T2 construct: NanoLuc Luciferase (N); eYFP; expressed in transfected cells; host or cells: Flp-In T-REx HEK293, doxycycline-induced
T2 sequence (O15552 1-330 K65E): T1 sequence (O15552 1-330 K65R) with R65E
Nature of the assay: inositol monophosphate accumulation assay, Lys65Glu hFFA2. It is filed as cell-based. As for the experimental part:
as §1

The target of assay [3] is T1, Lys^65Arg hFFA2. Nature of the assay: HTRF cAMP inhibition assay, Lys65Arg hFFA2. Type of assay: cell-based. The following applies: inhibition of 1 μM forskolin-induced cAMP. As for the experimental part:
as §1
A general note: TR-FRET usually uses a lanthanide donor and a delayed reading to cut background.

In assay [4] the target is T2, Lys^65Glu hFFA2. Nature of the assay: HTRF cAMP inhibition assay, Lys65Glu hFFA2. Type of assay: cell-based. The settings on record: inhibition of 1 μM forskolin-induced cAMP, K65E hFFA2. The method, then:
as §1

The target in assay [5] is T1, Lys^65Arg hFFA2. Nature of the assay: [35S]GTPγS incorporation assay, Lys65Arg hFFA2. Type of assay: biochemical. The following applies: membranes. As for the experimental part: (§2) Initially, 5 μg of generated membrane protein was pre-incubated for 15 min at 25 °C in assay buffer (50 mM Tris-HCl, 10 mM MgCl2; 100 mM NaCl; 1 mM EDTA; 1 μM GDP; 0.1% fatty acid-free bovine serum albumin; pH 7.4) containing the indicated ligand concentrations. […] Unbound radioligand was removed from filters by three washes with ice-cold wash buffer (50 mM Tris-HCl, 10 mM MgCl2; pH 7.4) and filters were dried for 2–3 h at room temperature. Dried filters were added to 3 mL of Ultima Gold^TM XR (PerkinElmer Life Sciences, Beaconsfield, UK) and [^35S]GTPγS binding was determined by liquid scintillation spectrometry.
(In general: GTPγS is a poorly hydrolysed GTP analogue; its binding reports G protein activation.)

Assay [6] addresses T2, Lys^65Glu hFFA2. Nature of the assay: [35S]GTPγS incorporation assay, Lys65Glu hFFA2. The following applies: membranes. Type of assay: biochemical. The method, then:
as §2

The target in assay [7] is T3, hFFA2 (Homo sapiens, UniProt O15552).
T3 sequence (O15552 1-330): T1 sequence (O15552 1-330 K65R) with R65K
Nature of the assay: inositol monophosphate accumulation assay, wild type hFFA2. Type of assay: cell-based. Details: expressed in transfected cells. The following applies: wild type hFFA2. The method, then:
as §1

Assay [8] concerns the target T3, hFFA2. Nature of the assay: HTRF cAMP inhibition assay, wild type hFFA2. The settings on record: inhibition of 1 μM forskolin-induced cAMP. Details: expressed in transfected cells. It is filed as cell-based. The method, then:
as §1

In assay [9] the target is T4, Lys^65Ala hFFA2 (Homo sapiens, UniProt O15552, K65A).
T4 sequence (O15552 1-330 K65A): T1 sequence (O15552 1-330 K65R) with R65A
Nature of the assay: inositol monophosphate accumulation assay, Lys65Ala hFFA2. Details: NanoLuc Luciferase (N); eYFP; expressed in transfected cells; host or cells: Flp-In T-REx HEK293, doxycycline-induced. Type of assay: cell-based. The method, then:
as §1

Assay [10] concerns the target T4, Lys^65Ala hFFA2. Nature of the assay: HTRF cAMP inhibition assay, Lys65Ala hFFA2. Type of assay: cell-based. Further details: NanoLuc Luciferase (N); eYFP; expressed in transfected cells; host or cells: Flp-In T-REx HEK293, doxycycline-induced. The settings on record: inhibition of 1 μM forskolin-induced cAMP, K65A hFFA2. As for the experimental part:
as §1

Assay [11] deals with T4, Lys^65Ala hFFA2. Nature of the assay: [35S]GTPγS incorporation assay, Lys65Ala hFFA2. It is filed as biochemical. Further details: NanoLuc Luciferase (N); eYFP; expressed in transfected cells; host or cells: Flp-In T-REx HEK293, doxycycline-induced. The following applies: membranes. As for the experimental part: as §2
Assay [12] addresses T3, hFFA2. Nature of the assay: [35S]GTPγS incorporation assay, wild type hFFA2. Type of assay: biochemical. Further details: HA-tag (C); expressed in transfected cells; host or cells: HEK293, parental and CRISPR/Cas9 G protein-deleted lines, transient transfection. The settings on record: membranes. The method, then: as §2

Substitutions are numbered along the chain they refer to.

On to `Cc1nc(NC(=N)N)sc1-c1cccc(NC(=O)c2ccc(F)cc2)c1` [AZ1729, N-[3-(2-carbamimidamido-4-methyl-1,3-thiazol-5-yl)phenyl]-4-fluoro benzamide], for which the “inositol monophosphate production via Lys65Arg hFFA2” value on Lys^65Arg hFFA2 [1] is listed as “unable to promote inositol monophosphate production”. Besides, on Lys^65Glu hFFA2 [2], the “inositol monophosphate production via Lys65Glu hFFA2” value is listed as “unable to promote inositol monophosphate production”. The “pEC50 cAMP, K65R” value on Lys^65Arg hFFA2 [3] was determined as 6.47 ± 0.15. For the same compound, at Lys^65Glu hFFA2 [4], the “pEC50 cAMP, K65E” value is reported as 6.45 ± 0.15. The “pEC50 GTPγS, K65R” value at Lys^65Arg hFFA2 [5] came out at 6.79 ± 0.07. Besides, the “pEC50 GTPγS, K65E” value at Lys^65Glu hFFA2 [6] is reported as 6.79 ± 0.12. Further, the “accumulation of inositol monophosphates via hFFA2” value at hFFA2 [7] is recorded as “unable to promote accumulation of inositol monophosphates”. In addition, at hFFA2 [8], the “pEC50 cAMP, WT” value amounted to 6.35 ± 0.13. In addition, the “inositol monophosphate production via Lys65Ala hFFA2” value on Lys^65Ala hFFA2 [9] is given as “unable to promote inositol monophosphate production”. The “pEC50 cAMP, K65A” value on Lys^65Ala hFFA2 [10] stood at 6.42 ± 0.03. On Lys^65Ala hFFA2 [11], the “pEC50 GTPγS, K65A” value was 6.94 ± 0.14. For the same compound, on hFFA2 [12], the “pEC50 GTPγS, WT” value is on record as 6.97 ± 0.02.
